What was measured:
TfR = test: Transferrin receptor expression in HepG2 cells by flow cytometry; format: cell-based
Protocol: Transferrin receptor expression and cellular uptake: In the next step, the expression of TfR in HepG2 cells was studied using flow cytometry. […] After creating an iron deficient microenvironment by treating the cells with 100 μM DFO, the number of the TfR-expressing cells increased to ˜89% (FIG. 13C). […] Following that, intracellular uptake of the core-shell nanoparticles in cancer cells was investigated. […] After creating iron-deficient microenvironment, the uptake was further increased to ˜94% (FIG. 13G) due to the increase in the number of TfRexpressing cells. Upon addition of iron-loaded transferrin, the uptake was dropped to ˜69% due to the saturation of TfR expression in these cells (FIG. 13H).

HepG2 cells = test: Annexin V/PI apoptosis assay (confocal imaging and flow cytometry); format: cell-based; settings: for apoptosis (apoptotic cells by flow cytometry): 5 μM sorafenib and/or 0.5 μM Dox
Protocol: Apoptosis studies: In the next step, the mode of cell death using Annexin V/PI apoptosis assay was investigated. […] The apoptotic cells using flow cytometry were also quantified. […] Even after combining both the drugs (5 μM sorafenib (5S) with 0.5 μM Dox (0.5D)), a maximum of only ˜60% apoptosis was registered (FIG. 15D). In contrast, as separate nanoformulations, the nano-shell (containing 5 μM sorafenib, (5AST)) (FIG. 15F), and the nano-core (containing 0.5 μM Dox, (0.5PD)) (FIG. 15G) have shown slight improvement in apoptosis (˜39% by shell, and ˜61% by core). After combining the two in a core-shell targeted fashion, excellent apoptosis was registered in ˜91% cells (FIG. 15H).

Compound: holotransferrin: iron-loaded transferrin
- number of TfR-expressing cells (TfR; HepG2 cells, upon addition of iron-loaded transferrin (holotransferrin)): ~42%

Compound: CC(=O)N(O)CCCCCNC(=O)CCC(=O)N(O)CCCCCNC(=O)CCC(=O)N(O)CCCCCN [DFO]
- viability of TfR overexpressing cells (HepG2 cells; pretreatment with 100 μM DFO, FIG. 15E): did not affect the viability
- number of TfR-expressing cells (TfR; HepG2 cells treated with 100 μM DFO (iron deficient microenvironment), ~76% before iron chelation): ~89%

Compound: COc1cccc2c1C(=O)c1c(O)c3c(c(O)c1C2=O)C[C@@](O)(C(=O)CO)C[C@@H]3O[C@H]1C[C@H](N)[C@H](O)[C@H](C)O1 [Dox, doxorubicin]
- apoptosis (apoptotic cells by flow cytometry) (HepG2 cells): ~53%

Compound: CNC(=O)c1cc(Oc2ccc(NC(=O)Nc3ccc(Cl)c(C(F)(F)F)c3)cc2)ccn1 [sorafenib]
- apoptosis (apoptotic cells by flow cytometry) (HepG2 cells): ~38%
